Legend:
Settings in all cases: treatment: drug alone; 5 days
769-P [1] = experiment: GI50, drug alone; higher = less potent
Protocol: (§1)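 Primary HTS: 8 RCC cell lines treated with 8 doses (up to 10 uM) of each library drug alone for 5 days; viability read by CellTiter-Glo and normalised to DMSO. GI50 was fitted with XLfit (4-parameter), AUC is the area under the dose-response curve, and minimum viability is the lowest fraction of DMSO viability across doses.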

786-O [2] = experiment: GI50, drug alone; higher = less potent
Protocol: as §1

A498 [3] = experiment: GI50, drug alone; higher = less potent
Protocol: as §1

ACHN [4] = experiment: GI50, drug alone; higher = less potent
Protocol: as §1

CAKI-1 [5] = experiment: GI50, drug alone; higher = less potent
Protocol: as §1

SN12C [6] = experiment: GI50, drug alone; higher = less potent
Protocol: as §1

TK-10 [7] = experiment: GI50, drug alone; higher = less potent
Protocol: as §1

UO-31 [8] = experiment: GI50, drug alone; higher = less potent
Protocol: as §1

769-P [9] = experiment: minimum viability across doses, drug alone, relative to DMSO (fraction); higher = less growth inhibition
Protocol: as §1

786-O [10] = experiment: as above
Protocol: as §1

A498 [11] = experiment: as above
Protocol: as §1

ACHN [12] = experiment: as above
Protocol: as §1

CAKI-1 [13] = experiment: as above
Protocol: as §1

SN12C [14] = experiment: as above
Protocol: as §1

TK-10 [15] = experiment: as above
Protocol: as §1

UO-31 [16] = experiment: as above
Protocol: as §1

769-P [17] = experiment: AUC of dose-response viability curve, drug alone (arbitrary (AUC of normalised viability)); higher = less growth inhibition
Protocol: as §1

786-O [18] = experiment: as above
Protocol: as §1

A498 [19] = experiment: as above
Protocol: as §1

ACHN [20] = experiment: as above
Protocol: as §1

CAKI-1 [21] = experiment: as above
Protocol: as §1

SN12C [22] = experiment: as above
Protocol: as §1

TK-10 [23] = experiment: as above
Protocol: as §1

UO-31 [24] = experiment: as above
Protocol: as §1

| GI50, drug alone (786-O [2]) [nM] | GI50, drug alone (ACHN [4]) [nM] | SMILES | GI50, drug alone (769-P [1]) [nM] | GI50, drug alone (A498 [3]) [nM] | GI50, drug alone (CAKI-1 [5]) [nM] | GI50, drug alone (SN12C [6]) [nM] | GI50, drug alone (TK-10 [7]) [nM] | GI50, drug alone (UO-31 [8]) [nM] | minimum viability across doses (769-P [9]) | minimum viability across doses (786-O [10]) | minimum viability across doses (A498 [11]) | minimum viability across doses (ACHN [12]) | minimum viability across doses (CAKI-1 [13]) | minimum viability across doses (SN12C [14]) | minimum viability across doses (TK-10 [15]) | minimum viability across doses (UO-31 [16]) | AUC of dose-response viability curve (769-P [17]) | AUC of dose-response viability curve (786-O [18]) | AUC of dose-response viability curve (A498 [19]) | AUC of dose-response viability curve (ACHN [20]) | AUC of dose-response viability curve (CAKI-1 [21]) | AUC of dose-response viability curve (SN12C [22]) | AUC of dose-response viability curve (TK-10 [23]) | AUC of dose-response viability curve (UO-31 [24]) |
| --- | --- | --- | --- | --- | --- | --- | --- | --- | --- | --- | --- | --- | --- | --- | --- | --- | --- | --- | --- | --- | --- | --- | --- | --- |
| > 10000 | 13.3 | COCC[n+]1c2c(n(Cc3cnccn3)c1C)C(=O)c1ccccc1C2=O [YM155] | 14.5 | 12.4 | 12.5 | 11.3 | 27.7 | 25.6 | 0.00858 | 0.00377 | 0.0106 | 0.00196 | 0.00636 | 0.00269 | 0.0341 | 0.00519 | 0.736 | 0.165 | 0.68 | 0.648 | 0.655 | 0.567 | 1.14 | 0.852 |
| 299 | 699 | FC(F)c1nc2ccccc2n1-c1nc(N2CCOCC2)nc(N2CCOCC2)n1 [ZSTK474] | 1090 | 2170 | 431 | 1230 | 547 | 1450 | 0.127 | 0.0739 | 0.0458 | 0.0879 | 0.109 | 0.172 | 0.158 | 0.0171 | 2.38 | 1.95 | 2.84 | 2.36 | 2.12 | 2.48 | 2.17 | 2.73 |
| 5230 | 8870 | O=C(O)c1ccc2c(c1)nc(Nc1cccc(Cl)c1)c1ccncc12 [cx-4945 (Silmitasertib)] | > 10000 | > 10000 | 3970 | > 10000 | > 10000 | > 10000 | 0.679 | 0.259 | 0.956 | 0.238 | 0.0814 | 0.681 | 0.634 | 0.541 | 3.12 | 2.33 | 4.21 | 3.2 | 3.07 | 3.06 | 3.01 | 4.43 |

Reference: the supplement of paper PMC8149375
